# Source: patent US9833431B2, “Pharmaceutical combinations for the treatment of cancer” (Pitney Pharmaceuticals Pty Limited, priority 2013, dated 2017)
# Entries after “also recorded” stand apart in the source; their conditions may differ. Read-outs that look alike come from different tables or passages of the source.
# Columns and labels:
# [1] = system: OVCAR-3 and A2780; type: cell-based, human; conditions: Example 2; cell line not given
# [2] = system: OVCAR-3; assay: SRB cytotoxicity / proliferation assay, OVCAR-3 cells; conditions: 72 h; for Interaction of the drug with MPL (synergy), in words: OVCAR-3 cells, concentrations as stated in the figure
# Protocol: (§2) Cells were seeded in 96-well plates (2,000-3,000 cells/well) and culture overnight prior to treatment with MPL. Control cultures were treated with ethanol alone.
# (§3) Cytotoxicity was assessed using the sulforhodamine B (SRB) assay and reported as half maximal inhibitory concentration (IC50; Table 3). Cells were seeded in 96-well plates (2,000-3,000 cells/well), treated with the indicated compound(s) for 72 h, fixed, washed and stained with 100 μl of 0.4% (w/v) SRB dissolved in 1% acetic acid. Unbound dye was removed by five washes with 1% acetic acid before air-drying.
# (§4) In order to evaluate the effect of MPL on the in vitro efficacy of an established drug was evaluated using cell viability and cell proliferation assays. Cell viability was conducted according to standard Trypan Blue method. Cell proliferation was assessed using the sulforhodamine B (SRB) assay. For viability experiments, cells were seeded in 6 well plates, whereas for proliferation assays cells were grown in 96 well plates. Following over-night attachment, cells were treated with the intended drug at various concentrations either alone or in combination with monepantel (MPL) for 72 h. Parallel to this, cells treated with MPL alone were also deployed for comparative purposes. Following incubation for 72 h in a standard cell culture incubator, effect of mono and combined drug treatments on cell viability and/or cell proliferation was assessed through using Trypan Blue or SRB assays respectively.
# (§5) For viability assay, at the end of treatment period, cells were washed with PBS, trypsinized and counted using Trypan blue and hemocytometer. For the SRB assay cells were fixed, washed and stained with 100 μl of 0.4% (w/v) SRB dissolved in 1% acetic acid. Unbound dye was removed by five washes with 1% acetic acid before air drying. […] Monepantel (gift by Novartis, Basel, Switzerland) was dissolved in 100% ethanol and then diluted with the cell culture media.
# (§6) MPL (5 μM) and combination drugs were applied for 72 h unless indicated.
# [3] = system: A2780; assay: SRB cytotoxicity / proliferation assay, A2780 cells; conditions: for Interaction of the drug with MPL (synergy), in words: 72 h; for IC50: read-out: IC50 value, cell proliferation, approximate values
# Protocol: as §2
# (§7) Cells were seeded in 96-well plates (2,000-3,000 cells/well), treated with the indicated compound(s) for 72 h, fixed, washed and stained with 100 μl of 0.4% (w/v) SRB dissolved in 1% acetic acid. Unbound dye was removed by five washes with 1% acetic acid before air-drying.
# Cell viability was conducted according to standard Trypan Blue method. Cell proliferation was assessed using the sulforhodamine B (SRB) assay. For viability experiments, cells were seeded in 6 well plates, whereas for proliferation assays cells were grown in 96 well plates. Following over-night attachment, cells were treated with the intended drug at various concentrations either alone or in combination with monepantel (MPL) for 72 h. Parallel to this, cells treated with MPL alone were also deployed for comparative purposes. Following incubation for 72 h in a standard cell culture incubator, effect of mono and combined drug treatments on cell viability and/or cell proliferation was assessed through using Trypan Blue or SRB assays respectively.
# as §5
# [4] = system: Hep3B; assay: SRB cytotoxicity assay, Hep3B cells; type: cell-based, human; conditions: Hep3B cells; MPL at 5 μM; 48 h; FIG. 24
# Protocol: (§1) All cell lines described herein were purchased from ATCC. […] Control cultures were treated with ethanol alone.
# [5] = system: LN-18; assay: SRB cytotoxicity assay, LN-18 cells; type: cell-based, human; conditions: LN18 cells; 72 h; FIG. 21
# Protocol: as §1
# [6] = system: U87; assay: SRB cytotoxicity assay, U87 cells; type: cell-based, human; conditions: U87 cells; 72 h; FIG. 21
# Protocol: as §1
# [7] = system: PET; assay: SRB cytotoxicity assay, PET cells; type: cell-based, human; conditions: PET mesothelioma cells; 72 h; FIG. 25
# Protocol: as §1
# [8] = system: REN; assay: SRB cytotoxicity assay, REN cells; type: cell-based, human; conditions: REN mesothelioma cells; 72 h; FIG. 25
# Protocol: as §1
# [9] = system: YOU; assay: SRB cytotoxicity assay, YOU cells; type: cell-based, human; conditions: YOU mesothelioma cells; 72 h; FIG. 25
# Protocol: as §1
# [10] = system: AsPC1; assay: SRB cytotoxicity assay, AsPC1 cells; type: cell-based, human; conditions: AsPC-1 cells; 72 h; FIG. 23
# Protocol: as §1
# [11] = system: C170; assay: SRB cytotoxicity assay, C170 cells; type: cell-based; conditions: C170 cells; MPL 5 μM; 5-FU 20 μM, gemcitabine 0.5 μM, oxaliplatin 1 μM; 72 h; FIG. 27
# Protocol: as §1
# [12] = system: HT-29; assay: cells; type: cell-based; conditions: HT29 cells; MPL 5 μM; 5-FU 20 μM, gemcitabine 0.5 μM, oxaliplatin 1 μM; 72 h; FIG. 27
# Protocol: as §1
# [13] = system: CFPAC-1; assay: SRB cytotoxicity assay, CFPAC-1 cells; conditions: CFPAC-1 cells, 72 h
# Protocol: as §2, §3, §6
# [14] = system: HOSE; assay: SRB cytotoxicity assay, HOSE non-malignant control cells; conditions: for Interaction of the drug with MPL (synergy), in words: HOSE non-malignant control cells, concentrations as stated at the place or in the figure
# Protocol: (§8) All cell lines described herein were purchased from ATCC. Cells were seeded in 96-well plates (2,000-3,000 cells/well) and culture overnight prior to treatment with MPL. Control cultures were treated with ethanol alone.
# as §7
# (§9) Corresponding cytotoxicity of the major metabolite MPL-SO2 has also been tested where indicated. […] HUVEC, human fetal astrocytes and HOSE cells are non-transformed, non-immortalized and non-malignant, freshly isolated/low passage number cell populations, from apparently healthy non-diseased tissue. These healthy cell populations were included in the experimental series as controls for non-specific toxicity. Both MPL and MPL-SO2 were suspended in ethanol and applied in final concentrations of 0.5 to 1% ethanol in the respective culture media.
# as §4
# (§10) For viability assay, at the end of treatment period, cells were washed with PBS, trypsinized and counted using Trypan blue and hemocytometer. For the SRB assay cells were fixed, washed and stained with 100 μl of 0.4% (w/v) SRB dissolved in 1% acetic acid. Unbound dye was removed by five washes with 1% acetic acid before air drying. […] Monepantel (gift by Novartis, Basel, Switzerland) was dissolved in 100% ethanol and then diluted with the cell culture media. Other agents employed in the study were purchased either from Sigma Australia or Sapphire Australia, prepared and preserved for cell culture use according to supplier instructions.
# as §6
# [15] = system: HOSE
# Protocol: as §8, §7, §9, §4, §10, §6
# [16] = A2780 cells, concentrations as stated at the place or in the figure
compound,measurement,setting,value
NC(Cc1c[nH]cn1)C(=O)O (racemic) [DL-histidine],"effect of combination with MPL, in words",[1],no effect
same,"Interaction of the drug with MPL (synergy), in words",[2],no synergistic effect
"CCCSc1ccc2nc(NC(=O)OC)[nH]c2c1 [A8Z, albendazole]","Interaction of the drug with MPL (synergy), in words",[3]; [16],good synergistic effect
CN/C(=N/CCSCc1nc[nH]c1C)NC#N [Cimetidine],"Interaction of the drug with MPL (synergy), in words",[3]; [16],significant combination synergistic effect
"N.N.[Cl][Pt][Cl] [Cisplatin, cis-diamminedichloroplatinum(II)]","Interaction of the drug with MPL (synergy), in words",[4],No synergy was observed
same,"Interaction of the drug with MPL (synergy), in words",[3]; [16],some increase of effect
COc1cc2c(c(OC)c1OC)-c1ccc(OC)c(=O)cc1[C@@H](NC(C)=O)CC2 [Colchicine],"Interaction of the drug with MPL (synergy), in words",[3]; [16],cytotoxic effect
same,"Interaction of the drug with MPL (synergy), in words","[3]; A2780 cells, concentrations as stated at the place or in the figure, listed as colchicine",synergistic effect; also recorded: synergistic cytotoxicity
COc1cccc2c1C(=O)c1c(O)c3c(c(O)c1C2=O)C[C@@](O)(C(=O)CO)C[C@@H]3O[C@H]1C[C@H](N)[C@H](O)[C@H](C)O1 [Doxorubicin],"Interaction of the drug with MPL (synergy), in words",[5],synergistic interaction; also recorded: synergistic inhibition
same,"Interaction of the drug with MPL (synergy), in words",[6],synergistic interaction; also recorded: synergistic inhibition
same,"Interaction of the drug with MPL (synergy), in words",[4],synergistic cytotoxicity; also recorded: synergistically inhibits; also recorded: synergistically cytotoxic
same,"Interaction of the drug with MPL (synergy), in words",[7],synergistic interaction; also recorded: synergistic inhibition
same,"Interaction of the drug with MPL (synergy), in words",[8],synergistic interaction; also recorded: synergistic inhibition
same,"Interaction of the drug with MPL (synergy), in words",[9],synergistic interaction; also recorded: synergistic inhibition
same,"Interaction of the drug with MPL (synergy), in words",[10],do not display a synergistic interaction
same,"Interaction of the drug with MPL (synergy), in words","[3]; A2780 cells, concentrations as stated in the figure",synergy; also recorded: synergistic interaction; also recorded: synergistic inhibition
same,doxorubicin concentration in the absence of MPL equivalent to doxorubicin (10 nM) in the presence of MPL (5 μM),"[3]; A2780 cells, FIG. 1",1000 nM
same,IC50,"[3]; A2780 cells, with addition of 5 μM MPL, FIG. 1",~1 nM
same,IC50,"[3]; A2780 cells, without MPL, FIG. 1",~500 nM
same,"Interaction of the drug with MPL (synergy), in words",[2],synergistic interaction; also recorded: synergistic inhibition; also recorded: synergistic cytotoxic effect
O=c1[nH]cc(F)c(=O)[nH]1 [Fluorouracil],"Interaction of the drug(s) with MPL (synergy), in words",[11],synergistic cytotoxicity
same,"effect of combination with MPL, in words",[1],significant increase in the effect
Nc1ccn([C@@H]2O[C@H](CO)[C@@H](O)C2(F)F)c(=O)n1 [Gemcitabine],"Interaction of the drug(s) with MPL (synergy), in words",[11],synergistic cytotoxicity
same,"Interaction of the drug(s) with MPL (synergy), in words",[12],synergistic cytotoxicity
same,"Interaction of the drug with MPL (synergy), in words",[5],synergistic interaction; also recorded: synergistically inhibits
same,"Interaction of the drug with MPL (synergy), in words",[4],No synergy was observed
same,"Interaction of the drug with MPL (synergy), in words",[7],do not display a synergistic interaction
same,"Interaction of the drug with MPL (synergy), in words",[8],do not display a synergistic interaction
same,"Interaction of the drug with MPL (synergy), in words",[9],do not display a synergistic interaction
same,"Interaction of the drug with MPL (synergy), in words",[10],strong synergistic interaction; also recorded: synergistically inhibits
same,"effect of combination with MPL, in words",[1],notable increase in efficacy
same,"Interaction of the drug with MPL (synergy), in words","[13]; 5 μM MPL, FIG. 23",synergistic interaction; also recorded: synergistically exerted a cytotoxic effect
same,"Interaction of the drug(s) with MPL (synergy), in words","[13]; 10 μM MPL, data not shown",synergistically exerted a cytotoxic effect
same,"Interaction of the drug with MPL (synergy), in words",[3]; [16],strong synergistic interaction
same,"Interaction of the drug with MPL (synergy), in words","[3]; A2780 cells, concentrations as stated at the place or in the figure, listed as gemcitabine",synergistically inhibits
same,"Interaction of the drug with MPL (synergy), in words",[14]; 72 h,do not display the same synergistic interaction
same,"Interaction of the drug with MPL (synergy), in words","[14]; 72 h, listed as gemcitabine",do not display a synergistic interaction; also recorded: without displaying a synergistic interaction
N[C@@H](Cc1c[nH]cn1)C(=O)O [L-histidine],"effect of combination with MPL, in words",[1],no effect
same,"Interaction of the drug with MPL (synergy), in words",[2],no synergistic effect
c1ccc([C@H]2CN3CCSC3=N2)cc1 [Levamisole],"Interaction of the drug with MPL (synergy), in words",[3]; [16],did not display a synergistic effect
same,"Interaction of the drug with MPL (synergy), in words","[3]; A2780 cells, concentrations as stated at the place or in the figure, listed as levamisole",does not display a synergistic cytotoxicity
same,"synergistic cytotoxic effect with MPL, predicted","[3]; A2780 cells, levamisole at higher concentrations",may exert a synergistic cytotoxic effect
same,Synergistic cytotoxicity between MPL and combined drug,"[2]; OVCAR-3, 5 μM MPL + drug, Table 7",✓^3
same,"Interaction of the drug with MPL (synergy), in words",[2],significant synergistic effect; also recorded: does so against OVCAR-3 cells
CC#C[C@]1(O)CC[C@H]2[C@@H]3CCC4=CC(=O)CCC4=C3[C@@H](c3ccc(N(C)C)cc3)C[C@@]21C [Mifepristone],"Interaction of the drug with MPL (synergy), in words",[3]; [16],significant combination synergistic effect
"CN(C)c1ccc(O)c2c1C[C@H]1C[C@H]3[C@H](N(C)C)C(O)=C(C(N)=O)C(=O)[C@@]3(O)C(O)=C1C2=O [Mino, minocycline]","B) Double treatment with MPL: synergistic cytotoxicity, one symbol per experiment","[2]; OVCAR-3, MPL 5.0 μM + Mino (5 μM)",✓✓✓
same,"B) Double treatment with MPL: synergistic cytotoxicity, one symbol per experiment","[2]; OVCAR-3, MPL 5.0 μM + Mino (10 μM)",✓✓✓
same,"B) Double treatment with MPL: synergistic cytotoxicity, one symbol per experiment","[14]; HOSE, MPL 5.0 μM + Mino (5 μM), 72 h",✓✓✓
O=C1[O][Pt]2([NH][C@@H]3CCCC[C@H]3[NH]2)[O]C1=O [Oxaliplatin],"Interaction of the drug with MPL (synergy / additive cytotoxicity), in words",[15],does not exert any additive cytotoxic effect
same,"Interaction of the drug with MPL (synergy / additive cytotoxicity), in words","[14]; HOSE cells, MPL at 5 μM, 48 h, FIG. 24",does not display a synergistic cytotoxicity
CC/C(=C(\c1ccccc1)c1ccc(OCCN(C)C)cc1)c1ccccc1 [Tamoxifen],"effect of combination with MPL, in words",[1],significant increase in the effect
Cn1c(=O)c2c(ncn2C)n(C)c1=O [caffeine],"Interaction of the drug with MPL (synergy), in words",[2],no synergistic effect
NCC(=O)O [glycine],"effect of combination with MPL, in words",[1],no effect
same,"Interaction of the drug with MPL (synergy), in words",[2],no synergistic effect
Ivermectin,effect of the drug alone,[3]; A2780 (ovarian),inhibited
same,"Interaction of the drug with MPL (synergy), in words",[3]; [16],synergistic effect
